Here are results for 15 compounds from ChEMBL document CHEMBL4266001, “Potent Antimalarial Activity of Two Arenes Linked with Triamine Designed To Have Multiple Interactions with Heme” (ACS Med Chem Lett, 2018).

Data set [1] is described as follows: Selectivity index, ratio of cytotoxic concentration for human MRC5 cells to IC50 for chloroquine-resistant Plasmodium falciparum K1 infected in human erythrocytes.
Data set [2] has as its system Plasmodium falciparum. Kind of data set: Antiplasmodial activity against chloroquine-resistant Plasmodium falciparum K1 infected in human erythrocytes measured after 72 hrs by malstat reagent based LDH release assay. The data set is classed as functional, organism-based. The note with it: K1, 72 h. On the technique in general: LDH leaks from cells whose membrane has failed.

Data set [3] deals with Plasmodium falciparum. Kind of data set: Antiplasmodial activity against chloroquine-sensitive Plasmodium falciparum FCR-3 infected in human erythrocytes measured after 72 hrs by malstat reagent based LDH release assay. The data set is classed as functional, organism-based. The note with it: FCR-3/Gambia.
Data set [4] in a line: Inhibition of Plasmodium falciparum FCR-3 HDP expressed in Escherichia coli assessed as reduction in hemazoin formation. Also on record: species or system Plasmodium falciparum FCR-3/Gambia.
Data set [5] in a line: Binding affinity to hemin at pH 5.2 by ITC.
The test system of data set [6] is Plasmodium berghei. Kind of data set: Antimalarial activity against Plasmodium berghei N infected in mouse assessed as mouse survival at 15 mg/kg, po once daily for 4 consecutive days starting from 2 hrs post infection relative to control. The data set is classed as functional.
In data set [7] the test system is Plasmodium berghei. Kind of data set: Antimalarial activity against Plasmodium berghei N infected in mouse assessed as inhibition of parasitemia at 15 mg/kg, po once daily for 4 consecutive days starting from 2 hrs post infection measured on day 4 post last dose relative to control. The data set is classed as functional.
Data set [8] relates to Plasmodium berghei. Put plainly: animal or person. It counts as functional. The note with it: N, in Mus musculus, po.
Data set [9] concerns Plasmodium berghei. Put plainly: Antimalarial activity against Plasmodium berghei N infected in mouse assessed as mouse survival at 30 mg/kg, po once daily for 4 consecutive days starting from 2 hrs post infection relative to control. It counts as functional.
The subject of data set [10] is Plasmodium berghei. Put plainly: animal or person. The data set is classed as functional. Conditions: N, in Mus musculus, sc.
The test system of data set [11] is Plasmodium berghei. Kind of data set: Antimalarial activity against Plasmodium berghei N infected in mouse assessed as mouse survival at 30 mg/kg, sc once daily for 4 consecutive days starting from 2 hrs post infection relative to control. It counts as functional.

The source made the active and inactive calls. No cut-off for these calls is given here. A value given as a limit tells only on which side of the number the result lay.

As a reminder, the IC50 is the concentration needed to halve the response being measured. As to `CN(CCCNc1ccnc2cc(Cl)ccc12)CCCNc1ccnc2cc(Cl)ccc12`, the selectivity ratio in [1] came to 66. In addition, the figures for the IC50 in data set [2] and in data set [3] were 21 nM and 97 nM, respectively.
For the compound `CN(CCNc1ccc2ccccc2n1)CCNc1ccc2ccccc2n1`, in [1], the selectivity ratio amounted to 17. Also, the IC50 was found to be 18000 nM in [2] and 21000 nM in [3].
The like results for `CN(CCNC(=O)C=Cc1ccc2ccccc2n1)CCNc1ccnc2cc(Cl)ccc12` were, in that order, 6, 870 nM and 76 nM.
Turning to `CN(CCCNc1ccc2ccccc2n1)CCCNc1ccnc2cc(Cl)ccc12`, the selectivity ratio in data set [1] worked out at 61. The IC50 in [4] was found to be 0.92 nM; in [2], 37 nM; in data set [3], 0.92 nM. In addition, the outcome in [5] was Active.
For `CN(CCNc1ccc2ccccc2n1)CCNc1ccnc2cc(Cl)ccc12`, the selectivity ratio in data set [1] is 36. The IC50 in data set [2] turned out to be 370 nM; in data set [3], 29 nM.
Turning to `CN(CCNc1nccc2ccccc12)CCNc1ccnc2cc(Cl)ccc12`, the selectivity ratio in data set [1] was 36. The figures for the IC50 in [2] and in [3] were 270 nM and 24 nM, respectively.
For the compound `CN(CCCNC(=O)C=Cc1ccc2ccccc2c1)CCCNc1ccnc2cc(Cl)ccc12`, the selectivity ratio in data set [1] came out at 140. In addition, the IC50 in data set [2] amounted to 10 nM; in data set [3] it was 4.9 nM.
What is called inhibition in vivo is the relative decrease from the control value, in per cent. Take `C[C@H]1[C@H](OC(=O)CCC(=O)O)O[C@@H]2O[C@@]3(C)CC[C@H]4[C@H](C)CC[C@@H]1[C@@]24OO3` [ARTESUNATE]: in data set [6], the survival at 15 mg/kg was 103%. Besides, the inhibition in vivo at 15 mg/kg in data set [7] is 95.2%.
Turning to `CCN(CC)CCCC(C)Nc1ccnc2cc(Cl)ccc12` (stereo unspecified) [CHLOROQUINE], the IC50 in data set [4] amounted to 46 nM. In [5], the outcome was Active.
Regarding `CN(CCNC(=O)C=Cc1cnc[nH]1)CCNc1ccnc2cc(Cl)ccc12`, the selectivity ratio in [1] is greater than 14. Also, the IC50 in data set [2] was found to be 18000 nM; in [3], 750 nM.
As to `CN(CCNC(=O)C=Cc1ccc2ccccc2c1)CCNc1ccnc2cc(Cl)ccc12`, the values for the inhibition in vivo at 30 mg/kg in [8] and in [10] were 23.5% and 100%, respectively. For the same compound, the survival at 30 mg/kg in data set [9] was found to be 100%; in data set [11], 223%. Moreover, the selectivity ratio in [1] was found to be 1200. For the same compound, the half-maximal inhibitory concentration (IC50) was found to be 12 nM in data set [4], 28 nM in data set [2] and 12 nM in data set [3]. Further, in [5], the outcome was Active.
For `CN(CCNc1nc2ccccc2[nH]1)CCNc1nc2ccccc2[nH]1`, the selectivity ratio in data set [1] amounted to 4.7. The half-maximal inhibitory concentration (IC50) in data set [2] was 19000 nM; in [3], 17300 nM.
For the compound `CN(CCNc1ccccn1)CCNc1ccnc2cc(Cl)ccc12`, the selectivity ratio in data set [1] worked out at 430. For the same compound, the 50% inhibitory concentration (IC50) in data set [2] amounted to 1100 nM; in data set [3], 510 nM.
On to `CN(CCNc1nc2ccccc2[nH]1)CCNc1ccnc2cc(Cl)ccc12`, for which the selectivity ratio in data set [1] turned out to be 8.5. The IC50 in data set [2] was 3100 nM; in [3], 230 nM.
For `CN(CCNc1ncccn1)CCNc1ccnc2cc(Cl)ccc12`, the selectivity ratio in data set [1] is 40. Besides, the IC50 in data set [2] amounted to 750 nM; in data set [3], 210 nM.
